Assay results as given in ChEMBL document CHEMBL1201862, “PubChem BioAssay data set” (2004).
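A five-concentration, 48-hour dose response in 96-well plates underlies each endpoint, interpolated linearly between surrounding concentrations. GI50 is the concentration that inhibits growth by half.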 Active and inactive are the calls of the source. No stated cut-off is given here; in the data, active = GI50 up to about 1.1 µM and inactive = higher.

Assays:
Assay in all cases: NCI anticancer screen, dose series, 48 h
A498 = tested on: A498
SNB-75 = tested on: SNB-75
NCI-H460 = tested on: NCI-H460
SR = tested on: SR
UACC-62 = tested on: UACC-62
SF-539 = tested on: SF-539
HCC 2998 = tested on: HCC 2998
IGROV-1 = tested on: IGROV-1
HL-60 = tested on: HL-60
Hs-578T = tested on: Hs-578T
SK-MEL-2 = tested on: SK-MEL-2
T47D = tested on: T47D
NCI-H23 = tested on: NCI-H23
HCT-15 = tested on: HCT-15
MDA-N = tested on: MDA-N
SK-MEL-28 = tested on: SK-MEL-28
MDA-MB-231 = tested on: MDA-MB-231
UO-31 = tested on: UO-31
SK-MEL-5 = tested on: SK-MEL-5
BT-549 = tested on: BT-549
KM12 = tested on: KM12
OVCAR-5 = tested on: OVCAR-5
UACC-257 = tested on: UACC-257
EKVX = tested on: EKVX
SW-620 = tested on: SW-620
NCI-H522 = tested on: NCI-H522
K562 = tested on: K562
OVCAR-4 = tested on: OVCAR-4
HOP-62 = tested on: HOP-62
SF-268 = tested on: SF-268
PC-3 = tested on: PC-3
SN12C = tested on: SN12C
TK-10 = tested on: TK-10
OVCAR-3 = tested on: OVCAR-3
LOX IMVI = tested on: LOX IMVI
DU-145 = tested on: DU-145
RXF 393 = tested on: RXF 393
SNB-19 = tested on: SNB-19
Malme-3M = tested on: Malme-3M
M14 = tested on: M14
MOLT-4 = tested on: MOLT-4
CCRF-CEM = tested on: CCRF-CEM
HCT-116 = tested on: HCT-116
786-0 = tested on: 786-0
A549 = tested on: A549
RPMI-8226 = tested on: RPMI-8226
SF-295 = tested on: SF-295
CAKI-1 = tested on: CAKI-1
HOP-92 = tested on: HOP-92
ACHN = tested on: ACHN
OVCAR-8 = tested on: OVCAR-8
HT-29 = tested on: HT-29
NCI-H226 = tested on: NCI-H226

Measured: GI50

COC(=O)c1cc(C)ccc1/C=C1\Cc2cc(C)c(C)cc2C1=O
> 100 µM: HCT-15
active: CCRF-CEM 0.108 µM
inactive: A498 68.9 µM | SNB-75 17.5 µM | NCI-H460 > 100 µM | SR > 100 µM | UACC-62 27.8 µM | SF-539 > 100 µM | HCC 2998 > 100 µM | IGROV-1 > 100 µM | HL-60 > 100 µM | Hs-578T 38.8 µM | SK-MEL-2 60.3 µM | T47D > 100 µM | NCI-H23 > 100 µM | MDA-N > 100 µM | SK-MEL-28 > 100 µM | MDA-MB-231 > 100 µM | UO-31 > 100 µM | SK-MEL-5 > 100 µM | BT-549 > 100 µM | KM12 > 100 µM | OVCAR-5 > 100 µM | UACC-257 > 100 µM | EKVX > 100 µM | SW-620 > 100 µM | NCI-H522 > 100 µM | K562 89.3 µM | OVCAR-4 > 100 µM | HOP-62 39 µM | SF-268 41.1 µM | PC-3 > 100 µM | SN12C > 100 µM | TK-10 > 100 µM | OVCAR-3 51.1 µM | LOX IMVI > 100 µM | DU-145 > 100 µM | RXF 393 50.5 µM | SNB-19 29.9 µM | Malme-3M > 100 µM | M14 > 100 µM | MOLT-4 33.1 µM | HCT-116 > 100 µM | 786-0 55.8 µM | A549 > 100 µM | RPMI-8226 > 100 µM | SF-295 38.7 µM | CAKI-1 > 100 µM | HOP-92 36.2 µM | ACHN > 100 µM | OVCAR-8 > 100 µM | HT-29 > 100 µM | NCI-H226 > 100 µM
